Data on 1 compound can be found in patent US11850266B2, “Cardiomyocytes and compositions and methods for producing the same” (President and Fellows of Harvard College, priority 2019, dated 2023).

This assay has as its system iPSC-derived cardiomyocytes. Kind of assay: Muscular thin film (MTF) contractile force. It is filed as cell-based, human. Conditions: Torin1 200 nM 7 days, MTFs, FIG. 2F. The procedure:
Gelatin muscular thin films (MTFs) were prepared as previously described (32). Square 22×22 mm glass coverslips were covered with low adhesive tape (Patco 5560 Removable Protective Film Tape), and an Epilog Mini 24 laser engraving instrument was used to cut the tape such that two inner rectangles (3×10 mm for cantilever region and 7×10 mm for base region) were surrounded by an outer border. The larger inner rectangle was peeled away and this region was activated with 0.1 M NaOH for 5 minutes, then 0.5% (3-aminopropyl)triethoxysilane (APTES) in 95% ethanol for 5 minutes, then 0.5% glutaraldehyde solution for 30 minutes. The glass coverslips were then rinsed and dried. Next, the tape covering the smaller inner rectangle region was peeled away. A 20% w/v stock gelatin (175 g bloom, Type A, Sigma) in distilled water solution was dissolved at 65° C. for 30 minutes and an 8% w/v stock microbial transglutaminase (MTG) (Ajinomoto) in distilled water solution was dissolved at 37° C. for 30 minutes. […] The radius of curvature for each MTF was quantified using ImageJ. Thickness of the MTF was determined using a Zeiss LSM confocal microscope. […] The maximum and average systolic, diastolic, and twitch (systolic—diastolic stress) stresses were calculated for each MTF.

In the case of `CCC(=O)N1CCN(c2ccc(-n3c(=O)ccc4cnc5ccc(-c6cnc7ccccc7c6)cc5c43)cc2C(F)(F)F)CC1` [Torin1], the “relative maximum systolic force versus control” value is ~2 fold.
